The source made the active and inactive calls. No cut-off for these calls is given here.
Key:
Substance-K receptor = molecular target: T1, Substance-K receptor (Homo sapiens, UniProt P21452); assay: Displacement of [125I]-neurokinin A from human NK2R after 90 mins by scintillation counting analysis
T1 sequence (P21452 whole entry): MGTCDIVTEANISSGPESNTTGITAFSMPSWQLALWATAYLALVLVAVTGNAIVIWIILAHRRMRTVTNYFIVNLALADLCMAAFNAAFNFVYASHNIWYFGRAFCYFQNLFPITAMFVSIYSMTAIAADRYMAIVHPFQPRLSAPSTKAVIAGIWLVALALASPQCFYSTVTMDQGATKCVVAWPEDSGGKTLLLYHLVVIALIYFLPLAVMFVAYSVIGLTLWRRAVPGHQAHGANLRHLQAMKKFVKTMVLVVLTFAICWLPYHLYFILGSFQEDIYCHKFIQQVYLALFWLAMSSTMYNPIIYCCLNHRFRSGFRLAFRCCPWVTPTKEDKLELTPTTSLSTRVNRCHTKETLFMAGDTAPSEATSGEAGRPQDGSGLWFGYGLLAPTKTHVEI

Rattus norvegicus [1] = assay: In vivo inhibition of NK3R in castrated Sprague-Dawley rat assessed as decrease in serum luteinizing hormone level at 10 mg/kg, iv by radioimmunoassay relative to control; type: functional
Neuromedin-K receptor [2] = molecular target: T2, Neuromedin-K receptor (Homo sapiens, UniProt P29371)
T2 sequence (P29371 whole entry): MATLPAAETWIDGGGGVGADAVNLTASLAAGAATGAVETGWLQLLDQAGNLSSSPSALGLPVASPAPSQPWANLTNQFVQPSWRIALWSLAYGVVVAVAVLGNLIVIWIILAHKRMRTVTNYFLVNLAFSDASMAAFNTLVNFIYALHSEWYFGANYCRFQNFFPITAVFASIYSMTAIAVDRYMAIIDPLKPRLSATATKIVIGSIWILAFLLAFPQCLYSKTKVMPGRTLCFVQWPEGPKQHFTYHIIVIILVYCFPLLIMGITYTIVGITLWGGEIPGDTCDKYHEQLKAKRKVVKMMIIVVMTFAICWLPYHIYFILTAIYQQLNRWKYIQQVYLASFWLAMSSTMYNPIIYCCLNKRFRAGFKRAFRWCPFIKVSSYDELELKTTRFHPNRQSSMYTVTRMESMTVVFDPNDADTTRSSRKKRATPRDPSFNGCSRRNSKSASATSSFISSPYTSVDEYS

in vivo = conditions: Sprague-Dawley, rat, iv, 1 mg/kg
Neuromedin-K receptor [3] = molecular target: T2, Neuromedin-K receptor; assay: biochemical
Description: Displacement of [3H]-SB222200 from recombinant human NK3R expressed in CHO cell membranes after 90 mins by scintillation counting analysis

[4] = molecular target: Kappa-type opioid receptor (Homo sapiens) (UniProt P41145); assay: Inhibition of KOR (unknown origin) at 10 uM relative to control
Kappa-type opioid receptor (Homo sapiens), sequence (P41145 whole entry): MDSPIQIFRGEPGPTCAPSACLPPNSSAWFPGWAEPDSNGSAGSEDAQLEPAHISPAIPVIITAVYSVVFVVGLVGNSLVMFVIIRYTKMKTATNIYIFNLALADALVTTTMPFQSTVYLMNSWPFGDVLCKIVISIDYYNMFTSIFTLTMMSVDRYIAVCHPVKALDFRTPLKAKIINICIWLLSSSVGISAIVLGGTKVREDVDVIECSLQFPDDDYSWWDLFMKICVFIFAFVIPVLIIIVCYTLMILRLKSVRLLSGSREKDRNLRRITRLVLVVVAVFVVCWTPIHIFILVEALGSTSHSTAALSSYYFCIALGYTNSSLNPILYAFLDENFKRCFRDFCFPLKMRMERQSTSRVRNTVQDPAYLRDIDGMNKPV

[5] = molecular target: Neuropeptide FF receptor 1 (Homo sapiens) (UniProt Q9GZQ6); assay: Inhibition of NPFF1 (unknown origin) at 10 uM relative to control
Neuropeptide FF receptor 1 (Homo sapiens), sequence (Q9GZQ6 whole entry): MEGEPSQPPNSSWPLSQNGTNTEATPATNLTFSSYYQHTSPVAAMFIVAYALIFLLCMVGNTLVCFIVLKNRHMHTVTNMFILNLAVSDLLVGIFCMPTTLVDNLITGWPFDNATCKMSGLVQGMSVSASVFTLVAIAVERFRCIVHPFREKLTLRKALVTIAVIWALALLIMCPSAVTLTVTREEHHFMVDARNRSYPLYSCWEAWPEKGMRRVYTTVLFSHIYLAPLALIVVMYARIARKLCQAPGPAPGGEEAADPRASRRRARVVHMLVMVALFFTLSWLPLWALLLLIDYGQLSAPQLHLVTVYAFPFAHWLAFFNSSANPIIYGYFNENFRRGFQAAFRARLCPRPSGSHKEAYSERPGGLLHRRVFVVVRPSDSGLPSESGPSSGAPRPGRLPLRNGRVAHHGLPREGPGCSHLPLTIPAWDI

[6] = Apparent permeability across apical to basolateral side in human Caco2 cells in presence of 0.1% bovine serum albumin; conditions: Caco-2
[7] = Apparent permeability across basolateral to apical side in human Caco2 cells in presence of 0.1% bovine serum albumin; conditions: Caco-2
Cynomolgus monkey [8] = assay: In vivo inhibition of NK3R in castrated cynomolgus monkey assessed as decrease in plasma luteinizing hormone level at 20 mg/kg, po measured at 90 mins relative to control; type: functional; conditions: Macaca fascicularis, 1.5 h
[9] = Volume of distribution at steady state in castrated cynomolgus monkey at 10 mg/kg, iv by LC-MS/MS analysis; conditions: male, in vivo
Cynomolgus monkey [10] = assay: Unbound Cmax in castrated cynomolgus monkey at 5 mg/kg, po by LC-MS/MS analysis; type: ADME, organism-based, Macaca fascicularis; parameters: dose 5 mg/kg, route oral; conditions: in vivo
Cynomolgus monkey [11] = assay: Unbound Cmax in castrated cynomolgus monkey at 20 mg/kg, po by LC-MS/MS analysis; type: ADME, organism-based, Macaca fascicularis; parameters: dose 20 mg/kg, route oral; conditions: in vivo
[12] = Total systemic clearance in castrated cynomolgus monkey at 10 mg/kg, iv by LC-MS/MS analysis; type: ADME, organism-based, Macaca fascicularis; parameters: dose 10 mg/kg, route intravenous; conditions: male, in vivo
[13] = Tmax in castrated cynomolgus monkey at 20 mg/kg, po by LC-MS/MS analysis; type: ADME, organism-based, Macaca fascicularis; parameters: dose 20 mg/kg, route oral; conditions: male, in vivo
Cynomolgus monkey [14] = assay: Unbound AUC in castrated cynomolgus monkey at 20 mg/kg, po by LC-MS/MS analysis; type: ADME, organism-based, Macaca fascicularis; parameters: dose 20 mg/kg, route oral; conditions: in vivo
Cynomolgus monkey [15] = assay: Unbound AUC in castrated cynomolgus monkey at 5 mg/kg, po by LC-MS/MS analysis; type: ADME, organism-based, Macaca fascicularis; parameters: dose 5 mg/kg, route oral; conditions: in vivo
Cynomolgus monkey [16] = assay: Unbound AUC in castrated cynomolgus monkey at 10 mg/kg, iv by LC-MS/MS analysis; type: ADME, organism-based, Macaca fascicularis; parameters: dose 10 mg/kg, route intravenous; conditions: in vivo
[17] = Tmax in castrated cynomolgus monkey at 5 mg/kg, po by LC-MS/MS analysis; type: ADME, organism-based, Macaca fascicularis; parameters: dose 5 mg/kg, route oral; conditions: male, in vivo
Rattus norvegicus [18] = assay: Hepatotoxicity in Sprague-Dawley rat assessed as effect on ALT level at 30 mg/kg, po bid administered for 5 days; type: toxicity, organism-based; parameters: dose 30 mg/kg, route oral; conditions: in vivo, 120 h
Rattus norvegicus [19] = assay: Hepatotoxicity in Sprague-Dawley rat assessed as effect on bilirubin level at 30 mg/kg, po bid administered for 5 days; type: toxicity, organism-based; parameters: dose 30 mg/kg, route oral; conditions: in vivo, 120 h
Rattus norvegicus [20] = assay: Drug uptake in Sprague-Dawley rat at 30 mg/kg, po bid administered for 5 days; type: ADME, organism-based; parameters: dose 30 mg/kg, route oral; conditions: in vivo, 120 h
Cynomolgus monkey [21] = assay: In vivo inhibition of NK3R in castrated cynomolgus monkey assessed as decrease in plasma luteinizing hormone level at 20 mg/kg, po measured at 90 to 300 mins; type: functional, organism-based; parameters: dose 20 mg/kg; conditions: Macaca fascicularis
Cynomolgus monkey [22] = assay: In vivo inhibition of NK3R in castrated cynomolgus monkey assessed as decrease in plasma luteinizing hormone level at 20 mg/kg, po measured at 480 mins; type: functional, organism-based; parameters: dose 20 mg/kg; conditions: Macaca fascicularis
[23] = molecular target: Voltage-gated inwardly rectifying potassium channel KCNH2 (Homo sapiens, UniProt Q12809)
Voltage-gated inwardly rectifying potassium channel KCNH2, sequence (Q12809 whole entry): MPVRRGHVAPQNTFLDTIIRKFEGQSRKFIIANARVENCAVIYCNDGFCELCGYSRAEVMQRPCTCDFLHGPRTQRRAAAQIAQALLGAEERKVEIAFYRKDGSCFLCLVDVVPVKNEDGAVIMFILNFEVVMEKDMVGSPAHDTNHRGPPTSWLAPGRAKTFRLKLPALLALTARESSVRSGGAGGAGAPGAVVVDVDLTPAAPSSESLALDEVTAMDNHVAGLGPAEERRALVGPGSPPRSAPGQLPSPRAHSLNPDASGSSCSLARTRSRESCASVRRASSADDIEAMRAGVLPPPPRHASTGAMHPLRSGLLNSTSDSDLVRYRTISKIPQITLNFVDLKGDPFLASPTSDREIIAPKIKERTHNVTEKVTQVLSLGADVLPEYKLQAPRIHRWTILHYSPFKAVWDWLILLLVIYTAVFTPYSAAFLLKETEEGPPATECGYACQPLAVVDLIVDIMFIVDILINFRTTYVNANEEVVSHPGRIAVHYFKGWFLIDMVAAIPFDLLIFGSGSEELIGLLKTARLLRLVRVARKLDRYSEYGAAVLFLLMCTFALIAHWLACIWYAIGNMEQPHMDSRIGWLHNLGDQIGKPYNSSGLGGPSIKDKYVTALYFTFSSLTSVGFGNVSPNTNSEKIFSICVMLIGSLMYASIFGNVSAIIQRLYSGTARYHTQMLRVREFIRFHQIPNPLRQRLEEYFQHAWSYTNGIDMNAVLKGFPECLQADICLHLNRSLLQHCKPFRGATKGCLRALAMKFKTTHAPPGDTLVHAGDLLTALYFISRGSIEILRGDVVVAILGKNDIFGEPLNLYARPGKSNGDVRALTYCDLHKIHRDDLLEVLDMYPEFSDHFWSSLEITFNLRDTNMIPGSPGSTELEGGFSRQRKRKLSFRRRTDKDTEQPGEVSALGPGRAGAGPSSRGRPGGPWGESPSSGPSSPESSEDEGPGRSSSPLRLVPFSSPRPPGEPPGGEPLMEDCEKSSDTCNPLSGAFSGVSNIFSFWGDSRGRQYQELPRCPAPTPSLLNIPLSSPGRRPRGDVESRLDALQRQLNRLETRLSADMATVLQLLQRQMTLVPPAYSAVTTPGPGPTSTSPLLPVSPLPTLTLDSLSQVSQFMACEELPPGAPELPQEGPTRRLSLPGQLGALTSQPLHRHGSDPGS
Description: Inhibition of human ERG expressed in HEK293 cells after 5 mins by patch-clamp assay

C[C@@H]1c2nnc(-c3csc(-c4ccc(F)cc4F)n3)n2CCN1C(=O)c1ccc(-c2cccs2)cc1
Ki (Substance-K receptor): 0.794 µM
inhibition in vivo at 10 mg/kg (Rattus norvegicus [1]): 50%
IC50 (Neuromedin-K receptor [2]): 0.02 µM
half-life (in vivo): 5.35 h
Ki (Neuromedin-K receptor [3]): 0.002 µM

Cc1nc(-c2nnc3n2CCN(C(=O)c2ccc(-c4cccs4)cc2)[C@@H]3C)cs1
inhibition [4]: 25%
inhibition [5]: 18%
Papp A→B [6]: 48.2 ×10⁻⁶ cm/s
Papp B→A [7]: 52.9 ×10⁻⁶ cm/s
inhibition in vivo at 20 mg/kg (Cynomolgus monkey [8]): 40%
Vd [9]: 1.52 L/kg
fCmax (Cynomolgus monkey [10]): 17.9 nM
fCmax (Cynomolgus monkey [11]): 237 nM
clearance [12]: 16.5 mL/min/kg
Tmax [13]: 1 h
fAUC (Cynomolgus monkey [14]): 0.526 µM·h
fAUC (Cynomolgus monkey [15]): 0.0646 µM·h
fAUC (Cynomolgus monkey [16]): 1.055 µM·h
Tmax [17]: 1.5 h
Activity (Rattus norvegicus [18]): Non-toxic
Activity (Rattus norvegicus [19]): Non-toxic
Drug uptake (Rattus norvegicus [20]): Not Active
inhibition (Cynomolgus monkey [21]): Active
inhibition (Cynomolgus monkey [22]): inactive
IC50 [23]: 24 µM

Source: ChEMBL document CHEMBL3421625, “Discovery and optimization of novel antagonists to the human neurokinin-3 receptor for the treatment of sex-hormone disorders (Part I)” (J Med Chem, 2015)
